The test system of the test is Wnt pathway. The experiment in a line: Wnt pathway Super-top flash (STF) reporter gene assay (primary assay). It is filed as cell-based. The settings on record: HEK293 STF cells co-cultured 1:1 with L Wnt3A cells; 48 h incubation; inhibition of luminescence signaling. As for the experimental part: The primary assay is based on Wnt pathway Super-top flash (STF) reporter gene assay:
HEK293 STF stable clones (HEK293 cells stably transfected with “Super-Top Flash” TCF-luciferase reporter plasmid) were kept in complete culture medium (DMEM with 4 mM L-Gln, 1.5 g/L sodium bicarbonate and 4.5 g/L glucose containing 6 μg/mL Blasticidin and 10% FBS). L Wnt3A cells (CRL-2647, ATCC) were kept in DMEM (Gibico) containing 10% FBS (Hyclone). HEK293 STF and L Wnt3A cells were harvested when 90% confluence and cell suspension was mixed with a fixed ratio of 1:1 (HEK293 STF: L Wnt3A). 100 μL/well of mixed cells suspension was added to the 96-well-plate with final cell concentration of 12,000 cells/well and then cultured for an additional 24 hours before adding compounds.
Compounds were diluted in DMSO in sequence and then diluted with DMEM medium. 20 μL medium containing compound was added to the cells according to the pre-setting dose. Cell plates were incubated at 37° C. for an additional 48 hours.
50 μL luciferase solution (Bright-Glo, Promega) was added to each well […] the 48 h incubation. The plates were incubated at room temperature for 5 min under gentle shaking. Luminescence signaling was measured with a plate reader (PHERAstar FS, BMG). The IC50 (potency) of compounds was calculated based on the inhibition of luminescence signaling.
(In general: In a reporter assay the amount or activity of a reporter protein is the signal.)
As to `Cc1cc(-c2ncc(CNc3nccc(-c4cc5cccnc5cn4)c3F)cc2C#N)ccn1` [Compound A-121, 5-((3-fluoro-4-(1,7-naphthyridin-6-yl)pyridin-2-ylamino)methyl)-2′-methyl-2,4′-bipyridine-3-carbonitrile], the IC50 amounted to 0.06 nM.
For the molecule `COc1cc(CNc2ncnc(-c3ccc4ncccc4c3)c2F)cnc1-c1ccnc(C)c1` [Compound A-65], the IC50 worked out at 0.44 nM.
On to `Cc1cc(-c2ccnc(NCc3cnc(-c4ccnc(C)c4)c(C#N)c3)c2F)ccn1` [Compound A-127], for which the IC50 was 0.34 nM.
To `N#Cc1ccc2nc(CNc3ncnc(N4CCc5ncccc5C4)c3F)ccc2c1` [Compound A-74] belongs 1.6 nM; to `Cc1cc(-c2ccc(CNc3cc(-c4ccc5ccccc5c4)nc(N)n3)cc2)ccn1` [Compound A-153], 3000 nM.
To `Cc1cc(-c2ncc(CNc3nccc(-c4ccc5ncccc5n4)c3O)cc2F)ccn1` [Compound A-176, 2-((3-fluoro-2′-methyl-2,4′-bipyridin-5-yl)methylamino)-4-(1,5-naphthyridin-2-yl)pyridin-3-ol] belongs 18 nM.
To `Cc1cc(-c2ccc(CNc3nccc(-c4ccc5ccccc5c4)n3)cc2)ccn1` [Compound A-152] belongs 4.9 nM; to `CNc1ncc2c(n1)CCN(c1cc(NCc3ccc(-c4ccnc(C)c4)cc3)ncn1)C2=O` [Compound A-138, 2-(methylamino)-6-(6-(4-(2-methylpyridin-4-yl)benzylamino)pyrimidin-4-yl)-7,8-dihydropyrido[4,3-d]pyrimidin-5(6H)-one], 712 nM; to `Cc1cc(-c2ccc(C(C)Nc3nccc(-c4ccc5ncccc5c4)c3F)cc2)ccn1` (centres unmarked) [Compound A-102], 0.54 nM.
Regarding `N#Cc1ccc2nc(CNc3nccc(-c4ccc5ncccc5c4)n3)ccc2c1` [Compound A-178], the IC50 amounted to 200 nM.
For `Cc1cc(-c2ccc(CNc3nccc(-c4ccc5ncncc5c4)n3)cc2)ccn1` [Compound A-159] the value was 17 nM; for `Cc1cc(-c2ccc(CNc3ncnc(-c4ccc5ccccc5c4)c3F)s2)ccn1` [Compound A-29], 577 nM; for `Cc1cc(-c2ncc(CNc3nccc(-c4ccc5ncnn5c4)c3F)cc2F)ccn1` [Compound A-123], 0.12 nM.
For `Cc1cc(-c2ccc(CNc3ncnc(-c4ccc5ncsc5c4)c3F)cn2)ccn1` [Compound A-50] the value was 1 nM.
Consider `N#Cc1cnc2cc(CNc3nccc(-c4ccc5ncccc5c4)c3F)ccc2c1` [Compound A-118], for which the IC50 came to 318 nM.
As for `Cc1cc(-c2ccc(C(C)Nc3cc(-c4ccc5ccccc5c4)ncn3)cc2)ccn1` (centres unmarked) [Compound A-147], the IC50 turned out to be 40 nM.
As to `c1ccc2cc(-c3cc(NCc4ccc(-c5ccncc5)cc4)ncn3)ccc2c1` [Compound A-146], the 50% inhibitory concentration (IC50) came to 68 nM.
Regarding `Cc1cc(-c2ccc(CNc3ncnc(-c4ccc5ncccc5c4)c3F)cc2)ccn1` [Compound A-4], the IC50 turned out to be 0.3 nM.
To `Cc1cc(-c2ncc(CNc3nccc(-c4cnn(C)c4)c3F)cc2C#N)ccn1` [Compound A-128] belongs 1.8 nM; to `Cc1cc(-c2ncc(CNc3ncnc(N4CCn5nncc5C4)c3F)cc2F)ccn1` [Compound A-95], 15 nM.
For `Cc1cc(-c2ncc(CNc3nsc(-c4ccc5ncccc5c4)n3)cc2C#N)ccn1` [Compound A-194] the value was 0.09 nM.
To `Cc1cc(-c2ccc(CNc3cc(-c4ccc5ncccc5c4)ccn3)cc2)ccn1` [Compound A-166] belongs 3.6 nM.
For the molecule `Cc1cc(-c2ccc(CNc3ncnc(-c4ccc5ccncc5c4)c3F)cc2)ccn1` [Compound A-7], the IC50 was found to be 7.4 nM.
To `Cc1cc(-c2ccc(C(C)Nc3ncnc(-c4ccc5ccccc5c4)c3F)cc2)ccn1` (centres unmarked) [Compound A-28] belongs 17 nM.
For `Cc1cc(-c2ccc(CNc3cccc(-c4ccc5ccccc5c4)n3)cc2)ccn1` [Compound A-150] the value was 250 nM; for `COc1cc(CNc2nccc(-c3ccc4ncccc4n3)c2F)cnc1-c1ccnc(C)c1` [Compound A-125], 0.06 nM.

The IC50 is the midpoint of a concentration-inhibition curve.

The values are drawn from patent US10450300B2, “Wnt signaling pathway inhibitors and therapeutic applications thereof” (Suzhou Yunxuan Yiyao Keji Youxian Gongsi, priority 2015, dated 2019).
